Data set [1] can be described thus: Circular dichroism, R value of secondary structure. Type of data set: physicochemical. The conditions noted are these: CD, peptide 24 µM. The procedure:
The conformations of peptides were analyzed by circular dichroism (CD) in pH 7.3 4-(2-hydroxyethyl)-1-piperazineethanesulfonic acid (HEPES) buffer (Fig. 3a), 40% 2,2,2-trifluoroethanol (TFE)/pH 7.3 HEPES buffer (Fig. 3b), and 75% TFE/pH 7.3 HEPES buffer (Fig. 3c). Negative maxima at 205–209 nm (π → π*) and 222–225 nm (n → π*) were diagnostic of a right-handed (P) helical structure[31]–[33]. The ratio of R (θπ → π*/θn → π*) has been used as a parameter to distinguish an α-helical structure from a 3_10-helical structure (i.e., R ≈ 1: α-helix; R < 0.4: 3_10-helix) (Table S1)[34],[35]. Helical content (helicity) of peptides was estimated from the intensity of θn → π* values. A negative maximum at 195–200 nm (π → π*) and a weak positive maximum at 217 nm (n → π*) were diagnostic of a random coil structure. […] By adding TFE to HEPES buffer, (αMe)Leu peptide formed a complete right-handed (P) helical structure in a mixture of α- and 3_10-helices (R = 0.57 and 0.56 in Figs 3b and […], respectively). The dominant structures of Ac5c and Leu peptides changed by increased the rate of TFE to eventually be α-/3_10-helices (R = 0.52) and 3_10-helix (R = 0.30), respectively (Fig. 3c). […] Cbz-[L-Leu-L-Leu-(S,S)-Ac5c^dOM]3-OMe was reported to form a right-handed (P) helical structure in 50% TFE/H2O[37]. L-Leu might contribute to stabilization of the peptide helical secondary structure as well as (S,S)-Ac5c^dOM. Destabilization of the peptide helical secondary structure by L-Arg might be stronger than stabilization of it by (S,S)-Ac5c^dOM. Taken together with the results of CD spectra (Fig. 3), in which helicity of peptides was estimated from the intensity of θn → π* values, stability in the helicity of the peptides in the current study was as follows: (αMe)Leupeptide>Ac5cpeptide≈Leupeptide>Ac5c^dOMpeptide≈Argpeptide.
Figure 3 CD spectra of peptides in (a) HEPES buffer, (b) 40% TFE/HEPES buffer, and (c) 75% TFE/HEPES buffer. Peptide concentration: 24 µM.
Optical rotation [α]^rtD was measured using a Jasco DIP-370 polarimeter (JASCO, Tokyo, Japan) using a 0.5 dm cell. Infrared (IR) spectra were recorded using a Shimadzu IR Affinity-1 spectrometer (Shimadzu Corporation, Kyoto, Japan) for conventional measurement (KBr). CD spectra were recorded using a Jasco J-720W spectropolarimeter (JASCO) with a 1.0 mm path length cell. ^1H NMR (400 MHz) and ^13C NMR (100 MHz) spectra were determined using a JEOL AL 400 spectrometer (JEOL Ltd, Tokyo, Japan). Fast atom bombardment (FAB)-MS was measured using a JEOL JMS-700N (JEOL). MALDI-TOF-MS spectra were recorded using a Bruker Ultrax spectrometer (Bruker Daltonics, Fermont, CA). Piperidine was purchased from Tokyo Chemical Industry Co., Ltd. (Tokyo, Japan). Fmoc-L-Arg(Pbf)-OH, Fmoc-Gly-OH, Fmoc-L-Leu-OH, and CLEAR-Amide resin were purchased from the Peptide Institute., Inc. (Osaka, Japan). Fmoc-(S)-(αMe)Leu-OH was obtained from Nagase & Co., Ltd. (Kyoto, Japan). Fmoc-Ac5c-OH was purchased from Watanabe Chemical Industries, Ltd. (Hiroshima, Japan). HATU, HBTU, HOAt, and HOBt were from AAPPTec (Louisville, KY). COMU was from Novabiochem (Tokyo, Japan). CF and Dulbecco’s modified Eagle’s medium (DMEM) were obtained from Sigma-Aldrich Co. (St. Louis, MO). diisopropylethylamine (DIPEA) and heparin were purchased from Wako Pure Chemicals Co., Inc. (Osaka, Japan). Diethyl ether was from Kanto Chemical Co., Inc. (Tokyo, Japan). Trifluoroacetic acid (TFA) was obtained from Nacalai Tesque, Co., Inc. (Kyoto, Japan). Hoechst 33342 and a Cell counting kit-8 were purchased from Dojindo Laboratories (Kumamoto, Japan). LysoTracker Red was from Molecular Probes (Eugene, OR).
Table S1. R values (qπ → π*/qn → π*) of synthetic peptides.
R value (qπ → π*/qn → π* )
HEPES 40% TFE/HEPES 75% TFE/HEPES
(In general: CD spectra are sensitive to the conformation of chiral molecules.)

Data set [2] in a line: Resistance to protease digestion with pronase. Type of data set: in vitro ADME, Streptomyces griseus. The settings on record: 10 µM peptide in 2.5 × 10^−6 w/v% pronase/PBS, 37 °C, RP-HPLC, α-CHCA internal standard, read-out: intact peptide after incubation with pronase. The source says:
Next, we examined the stability of peptides against protease digestion using trypsin (Fig. 4a) and pronase (Fig. 4b). One of the advantages of peptide foldamers containing dAAs is their high resistance to degradation by proteases[38]–[40]. Trypsin is a serine protease that cleaves amide bonds at the C terminus of cationic amino acids such as Arg and lysine. Pronase is a non-specific protease mixture produced in the culture supernatant of Streptomyces griseus. Ac5c, Ac5c^dOM, (αMe)Leu, and Leu peptides were incubated with trypsin or pronase for 1, 2, and 4 h, and then rate of intact peptide was evaluated by RP-HPLC using α-cyano-4-hydroxycinnamic acid (α-CHCA) as an internal standard. Leu peptide was promptly degraded by both trypsin and pronase, and reached 0% intact peptide after 4 h incubation in a similar manner to Arg peptide reported previously[24],[25]. On the other hand, approximately 80% of Ac5c, Ac5c^dOM, and (αMe)Leu peptides remained intact even after 4 h incubation. Introduction of dAAs into peptides markedly elevated resistance to protease digestion, whether or not peptides formed stable helical structures. In other words, peptides composed of only natural α-amino acids were easily degraded by proteases independently of their peptide secondary structures.
One-hundred microliters of peptide solution (10 µM) in 2.5 × 10^−6 w/v% trypsin or pronase/phosphate buffer saline (PBS) was incubated at 37 °C for 0, 1, 2, and 4 h. After each incubation time, 250 µL of 1% TFA/PBS solution was added to inactivate the proteases, and 50 µL of 1/2 diluted saturated α-CHCA solution was added as an internal standard, followed by HPLC analysis, which was performed using the above-mentioned conditions.

Setting [3] is: pH 7.3 HEPES buffer, R ≈ 1 α-helix, R < 0.4 3_10-helix.

Numbered stars: 1 amine (or outer) side, 2 acyl side, 3 side chain; on linkers, the order of the positions; unused ones are H or OH. Square brackets hold non-standard residues; d marks the D form. Peptide text beside a SMILES is read from it. * marks the point of attachment. 5FAM = O=C1OC2(c3ccc(O)cc3Oc3cc(O)ccc32)c2ccc(C(=O)*)cc21; X1 = CO[C@H]1CC(N[*:1])(C(=O)[*:2])C[C@@H]1OC; αMeL = CC(C)C[C@](C)(N)C(=O)O; Ac5c = NC1(C(=O)O)CCCC1

Turning to `CC(C)C[C@](C)(NC(=O)[C@H](CCCNC(=N)N)NC(=O)[C@H](CCCNC(=N)N)NC(=O)[C@](C)(CC(C)C)NC(=O)[C@H](CCCNC(=N)N)NC(=O)[C@H](CCCNC(=N)N)NC(=O)[C@](C)(CC(C)C)NC(=O)[C@H](CCCNC(=N)N)NC(=O)[C@H](CCCNC(=N)N)NC(=O)CNC(=O)c1ccc2c(c1)C(=O)OC21c2ccc(O)cc2Oc2cc(O)ccc21)C(N)=O` [(αMe)Leu peptide] (5FAM-GRR[αMeL]RR[αMeL]RR[αMeL]-NH2), the “R value (θπ → π*/θn → π*)” value turned out to be 0.57 in data set [1] (40% TFE/pH 7.3 HEPES buffer), 0.56 in data set [1] (75% TFE/pH 7.3 HEPES buffer) and 0.45 in data set [1] (setting [3]). Moreover, in data set [2], the remaining at 4 h, 10 µM is approximately 80%.

As for `N=C(N)NCCC[C@H](NC(=O)CNC(=O)c1ccc2c(c1)C(=O)OC21c2ccc(O)cc2Oc2cc(O)ccc21)C(=O)N[C@@H](CCCNC(=N)N)C(=O)NC1(C(=O)N[C@@H](CCCNC(=N)N)C(=O)N[C@@H](CCCNC(=N)N)C(=O)NC2(C(=O)N[C@@H](CCCNC(=N)N)C(=O)N[C@@H](CCCNC(=N)N)C(=O)NC3(C(N)=O)CCCC3)CCCC2)CCCC1` [Ac5c peptide] (5FAM-GRR[Ac5c]RR[Ac5c]RR[Ac5c]-NH2), the “R value (θπ → π*/θn → π*)” value is listed as 0.61 in data set [1] (40% TFE/pH 7.3 HEPES buffer), 0.52 in data set [1] (75% TFE/pH 7.3 HEPES buffer) and “No significant maxima” in data set [1] (setting [3]). Besides, the remaining at 4 h, 10 µM in data set [2] was approximately 80%.

Turning to `CO[C@H]1CC(NC(=O)[C@H](CCCNC(=N)N)NC(=O)[C@H](CCCNC(=N)N)NC(=O)C2(NC(=O)[C@H](CCCNC(=N)N)NC(=O)[C@H](CCCNC(=N)N)NC(=O)C3(NC(=O)[C@H](CCCNC(=N)N)NC(=O)[C@H](CCCNC(=N)N)NC(=O)CNC(=O)c4ccc5c(c4)C(=O)OC54c5ccc(O)cc5Oc5cc(O)ccc54)C[C@H](OC)[C@@H](OC)C3)C[C@H](OC)[C@@H](OC)C2)(C(N)=O)C[C@@H]1OC` [Ac5c^dOM peptide] (5FAM-GRR[X1]RR[X1]RR[X1]-NH2), the “R value (θπ → π*/θn → π*)” value in data set [1] (40% TFE/pH 7.3 HEPES buffer), in data set [1] (75% TFE/pH 7.3 HEPES buffer) and in data set [1] (setting [3]) was “No significant maxima” throughout. Further, in data set [2], the remaining at 4 h, 10 µM is approximately 80%.

The values are drawn from PMC6362038, “Secondary structures and cell-penetrating abilities of arginine-rich peptide foldamers” (Scientific Reports, 2019).
